From patent publication US20240024488A1, “COMPOUNDS AND USES THEREOF” (Foghorn Therapeutics Inc., priority 2020, published 2024)

How the values were obtained:
[1] = molecular target: T1, HiBit-BRG1 fusion protein (Homo sapiens, UniProt P51532); experiment: HiBiT-BRG1 cell-based degradation assay (Nano-Glo HiBiT Lytic Detection, 24 h); conditions: HeLa cell line expressing HiBit-BRG1 and LgBit; for Dmax: read-out: BRG1 HiBit Degradation Maximum (%); for DC50: read-out: BRMG1 HiBit Degradation IC50
T1 construct: expressed in transfected cells
T1 sequence (P51532 whole entry, the tested form may be a part): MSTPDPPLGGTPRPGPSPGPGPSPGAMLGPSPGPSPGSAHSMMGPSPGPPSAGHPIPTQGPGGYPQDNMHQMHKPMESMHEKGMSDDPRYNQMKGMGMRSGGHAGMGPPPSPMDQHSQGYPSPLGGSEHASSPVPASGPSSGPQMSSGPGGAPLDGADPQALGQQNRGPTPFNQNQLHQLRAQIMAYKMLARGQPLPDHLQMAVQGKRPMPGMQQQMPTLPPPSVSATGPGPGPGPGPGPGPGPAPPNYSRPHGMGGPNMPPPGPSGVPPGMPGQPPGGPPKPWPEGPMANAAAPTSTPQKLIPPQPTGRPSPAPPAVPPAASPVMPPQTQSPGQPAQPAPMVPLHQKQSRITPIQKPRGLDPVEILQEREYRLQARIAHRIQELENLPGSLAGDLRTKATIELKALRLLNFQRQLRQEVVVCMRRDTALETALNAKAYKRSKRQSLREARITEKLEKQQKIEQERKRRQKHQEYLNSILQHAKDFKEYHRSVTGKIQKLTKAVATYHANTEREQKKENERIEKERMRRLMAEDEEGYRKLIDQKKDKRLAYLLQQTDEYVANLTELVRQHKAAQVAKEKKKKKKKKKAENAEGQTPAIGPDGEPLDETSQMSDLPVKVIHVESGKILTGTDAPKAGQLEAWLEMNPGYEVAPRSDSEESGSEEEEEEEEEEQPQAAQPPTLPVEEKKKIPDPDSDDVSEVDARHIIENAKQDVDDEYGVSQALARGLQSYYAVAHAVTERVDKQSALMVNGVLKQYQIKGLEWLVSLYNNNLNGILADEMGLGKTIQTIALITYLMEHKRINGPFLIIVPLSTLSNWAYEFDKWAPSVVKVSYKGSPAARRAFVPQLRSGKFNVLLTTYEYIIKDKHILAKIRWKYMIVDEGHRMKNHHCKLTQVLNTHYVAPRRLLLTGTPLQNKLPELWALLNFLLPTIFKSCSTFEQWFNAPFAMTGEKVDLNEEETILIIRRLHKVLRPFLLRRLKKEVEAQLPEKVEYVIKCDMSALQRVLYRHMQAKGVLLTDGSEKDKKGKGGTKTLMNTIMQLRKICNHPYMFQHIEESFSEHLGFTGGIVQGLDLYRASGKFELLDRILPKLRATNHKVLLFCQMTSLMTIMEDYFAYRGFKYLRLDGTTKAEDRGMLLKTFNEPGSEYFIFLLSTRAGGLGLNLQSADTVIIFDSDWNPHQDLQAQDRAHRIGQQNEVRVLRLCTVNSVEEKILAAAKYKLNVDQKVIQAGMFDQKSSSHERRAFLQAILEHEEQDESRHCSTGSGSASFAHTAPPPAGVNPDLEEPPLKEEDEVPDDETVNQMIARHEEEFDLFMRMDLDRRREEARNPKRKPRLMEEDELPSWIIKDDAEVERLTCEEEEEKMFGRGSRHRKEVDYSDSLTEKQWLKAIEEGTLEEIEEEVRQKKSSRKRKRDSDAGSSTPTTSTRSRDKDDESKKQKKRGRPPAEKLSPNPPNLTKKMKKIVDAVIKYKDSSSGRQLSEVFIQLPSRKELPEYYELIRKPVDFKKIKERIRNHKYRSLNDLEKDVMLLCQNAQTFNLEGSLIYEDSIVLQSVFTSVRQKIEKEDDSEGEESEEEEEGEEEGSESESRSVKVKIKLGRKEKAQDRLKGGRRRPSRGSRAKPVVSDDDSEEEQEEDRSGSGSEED
Outline: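 HeLa cells stably expressing HiBit-BRG1 plus LgBit; compound exposure 24 h; Nano-Glo HiBiT lytic luminescence; % degradation vs DMSO (0%) and 2 μM standard BRM/BRG1 degrader (100%).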

HiBit-BRM fusion protein = molecular target: T2, HiBit-BRM fusion protein (Homo sapiens, UniProt P51531); experiment: HiBiT-BRM cell-based degradation assay (Nano-Glo HiBiT Lytic Detection, 24 h); conditions: HeLa cell line expressing HiBiT-BRM; for DC50: read-out: BRM HiBit Degradation IC50
T2 construct: expressed in transfected cells
T2 sequence (P51531 whole entry, the tested form may be a part): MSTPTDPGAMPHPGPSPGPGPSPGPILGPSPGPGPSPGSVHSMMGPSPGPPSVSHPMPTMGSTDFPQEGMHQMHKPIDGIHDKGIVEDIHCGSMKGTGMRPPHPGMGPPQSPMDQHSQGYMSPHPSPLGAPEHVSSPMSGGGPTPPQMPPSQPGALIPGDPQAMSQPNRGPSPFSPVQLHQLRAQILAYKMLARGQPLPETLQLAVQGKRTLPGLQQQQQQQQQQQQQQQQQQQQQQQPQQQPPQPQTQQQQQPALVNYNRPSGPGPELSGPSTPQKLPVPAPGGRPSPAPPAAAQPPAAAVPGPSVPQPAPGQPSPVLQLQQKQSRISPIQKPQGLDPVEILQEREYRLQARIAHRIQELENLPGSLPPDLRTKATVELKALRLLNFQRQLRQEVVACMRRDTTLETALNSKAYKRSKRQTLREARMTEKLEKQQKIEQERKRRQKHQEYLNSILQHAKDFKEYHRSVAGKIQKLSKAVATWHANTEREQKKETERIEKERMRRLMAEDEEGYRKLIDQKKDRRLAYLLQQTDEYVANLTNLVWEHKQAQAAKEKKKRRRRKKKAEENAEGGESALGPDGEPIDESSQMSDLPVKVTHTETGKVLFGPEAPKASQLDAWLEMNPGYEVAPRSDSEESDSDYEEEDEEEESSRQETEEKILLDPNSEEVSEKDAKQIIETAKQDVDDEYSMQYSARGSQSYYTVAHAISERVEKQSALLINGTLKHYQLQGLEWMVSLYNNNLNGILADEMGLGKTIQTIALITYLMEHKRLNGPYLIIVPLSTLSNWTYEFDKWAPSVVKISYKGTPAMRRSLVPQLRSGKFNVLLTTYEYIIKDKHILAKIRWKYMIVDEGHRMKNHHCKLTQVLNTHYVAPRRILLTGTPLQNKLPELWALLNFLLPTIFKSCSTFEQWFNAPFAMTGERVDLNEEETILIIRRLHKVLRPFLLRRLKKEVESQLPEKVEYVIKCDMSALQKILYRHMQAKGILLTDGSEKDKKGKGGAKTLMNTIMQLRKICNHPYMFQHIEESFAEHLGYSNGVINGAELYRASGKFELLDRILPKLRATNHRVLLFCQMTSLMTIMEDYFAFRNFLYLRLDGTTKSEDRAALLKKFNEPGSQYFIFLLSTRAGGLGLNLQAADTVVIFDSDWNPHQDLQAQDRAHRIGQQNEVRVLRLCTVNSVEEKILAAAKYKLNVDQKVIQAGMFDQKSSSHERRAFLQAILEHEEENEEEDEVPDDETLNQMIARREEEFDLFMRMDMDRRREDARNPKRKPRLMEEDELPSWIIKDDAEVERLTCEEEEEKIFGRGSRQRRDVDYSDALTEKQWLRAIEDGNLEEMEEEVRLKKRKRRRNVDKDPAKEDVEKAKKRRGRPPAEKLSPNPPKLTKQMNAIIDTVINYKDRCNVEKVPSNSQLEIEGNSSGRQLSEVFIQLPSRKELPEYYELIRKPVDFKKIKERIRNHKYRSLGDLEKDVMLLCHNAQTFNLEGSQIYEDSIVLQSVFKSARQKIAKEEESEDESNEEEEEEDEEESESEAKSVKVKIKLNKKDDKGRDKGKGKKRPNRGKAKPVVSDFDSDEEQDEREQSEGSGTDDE
Outline: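 HeLa cells stably expressing HiBiT-BRM were dosed with compounds (10-point 3-fold dilutions, 30 μM final top dose, duplicate) for 24 h. HiBiT signal was read by lytic LgBiT complementation luminescence. Percent degradation was normalised to DMSO (high control) and 2 μM of a reference BRM/BRG1 degrader (low control).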

Row | Dmax [1] [%] | DC50 (HiBit-BRM fusion protein) [nM] | DC50 [1] [nM] | SMILES | BRM HiBit Degradation Maximum (%) (HiBit-BRM fusion protein)
1 | < 50 | > 100 |  | Cc1ncsc1-c1ccc([C@H](C)NC(=O)[C@@H]2C[C@@H](O)CN2C(=O)[C@@H](c2cc(OCCNC(=O)C(=O)N3CC(c4c[nH]c5nnc(-c6ccccc6O)cc45)C3)no2)C(C)C)cc1 (racemic) [Compound 250, (2S,4R)-4-hydroxy-1-((R)-2-(3-(2-(2-(3-(3-(2-hydroxyphenyl)-7H-pyrrolo[2,3-c]pyridazin-5-yl)azetidin-1-yl)-2-oxoacetamido)ethoxy)isoxazol-5-yl)-3-methylbutanoyl)-N-((S)-1-(4-(4-methylthiazol-5-yl)phenyl)ethyl)pyrrolidine-2-carboxamide] | A (“A” indicates maximum degradation ≥ 75%)
2 | > 75 | > 100 | > 100 | Cc1ncsc1-c1ccc([C@H](C)NC(=O)[C@@H]2C[C@@H](O)CN2C(=O)[C@@H](c2cc(N3CCN(CCC(=O)N4CC(c5c[nH]c6nnc(-c7ccccc7O)cc56)C4)CC3)no2)C(C)C)cc1 (racemic) [Compound 251, (2S,4R)-4-hydroxy-1-((R)-2-(3-(4-(3-(3-(3-(2-hydroxyphenyl)-7H-pyrrolo[2,3-c]pyridazin-5-yl)azetidin-1-yl)-3-oxopropyl)piperazin-1-yl)isoxazol-5-yl)-3-methylbutanoyl)-N-((S)-1-(4-(4-methylthiazol-5-yl)phenyl)ethyl)pyrrolidine-2-carboxamide] | A (“A” indicates maximum degradation ≥ 75%)
3 | < 50 |  |  | Cc1ncsc1-c1ccc([C@H](C)NC(=O)[C@@H]2C[C@@H](O)CN2C(=O)[C@H](c2cc(N3CCN(C(=O)c4cc5cc(-c6ccccc6O)nnc5[nH]4)CC3)no2)C(C)C)cc1 (racemic) [Compound 252, (2S,4R)-4-hydroxy-1-((S)-2-(3-(4-(3-(2-hydroxyphenyl)-7H-pyrrolo[2,3-c]pyridazine-6-carbonyl)piperazin-1-yl)isoxazol-5-yl)-3-methylbutanoyl)-N-((S)-1-(4-(4-methylthiazol-5-yl)phenyl)ethyl)pyrrolidine-2-carboxamide] | C (“C” indicates maximum degradation < 50%)
4 | > 75 | > 100 | > 100 | Cc1ncsc1-c1ccc([C@H](C)NC(=O)[C@@H]2C[C@@H](O)CN2C(=O)[C@@H](c2cc(N3CCN(C(=O)c4cc5cc(-c6ccccc6O)nnc5[nH]4)CC3)no2)C(C)C)cc1 (racemic) [Compound 253, (2S,4R)-4-hydroxy-1-((R)-2-(3-(4-(3-(2-hydroxyphenyl)-7H-pyrrolo[2,3-c]pyridazine-6-carbonyl)piperazin-1-yl)isoxazol-5-yl)-3-methylbutanoyl)-N-((S)-1-(4-(4-methylthiazol-5-yl)phenyl)ethyl)pyrrolidine-2-carboxamide] | A (“A” indicates maximum degradation ≥ 75%)
5 | < 50 | > 10 |  | Cc1ncsc1-c1ccc([C@H](C)NC(=O)[C@@H]2C[C@@H](O)CN2C(=O)[C@@H](c2cc(OCCN3CC(c4c(C)[nH]c5nnc(-c6ccccc6O)cc45)C3)no2)C(C)C)cc1 (racemic) [Compound 254, (2S,4R)-4-hydroxy-1-((R)-2-(3-(2-(3-(3-(2-hydroxyphenyl)-6-methyl-7H-pyrrolo[2,3-c]pyridazin-5-yl)azetidin-1-yl)ethoxy)isoxazol-5-yl)-3-methylbutanoyl)-N-((S)-1-(4-(4-methylthiazol-5-yl)phenyl)ethyl)pyrrolidine-2-carboxamide] | A (“A” indicates maximum degradation ≥ 75%)
6 | < 50 | > 100 |  | Cc1ncsc1-c1ccc([C@H](C)NC(=O)[C@@H]2C[C@@H](O)CN2C(=O)[C@@H](c2cc(N(C)CCN3CC(c4cc5cc(-c6ccccc6O)nnc5[nH]4)C3)no2)C(C)C)cc1 (racemic) [Compound 256] | A (“A” indicates maximum degradation ≥ 75%)
7 | < 50 |  |  | Cc1ncsc1-c1ccc([C@H](C)NC(=O)[C@@H]2C[C@@H](O)CN2C(=O)[C@H](c2cc(N(C)CCN3CC(c4cc5cc(-c6ccccc6O)nnc5[nH]4)C3)no2)C(C)C)cc1 (racemic) [Compound 257, (2S,4R)-4-hydroxy-1-((S)-2-(3-((2-(3-(3-(2-hydroxyphenyl)-7H-pyrrolo[2,3-c]pyridazin-6-yl)azetidin-1-yl)ethyl)(methyl)amino)isoxazol-5-yl)-3-methylbutanoyl)-N-((S)-1-(4-(4-methylthiazol-5-yl)phenyl)ethyl)pyrrolidine-2-carboxamide] | C (“C” indicates maximum degradation < 50%)
8 | > 75 | < 10 | > 10 | Cc1ncsc1-c1ccc([C@H](C)NC(=O)[C@@H]2C[C@@H](O)CN2C(=O)[C@@H](c2cc(OCCN3CC[C@H](c4[nH]c5nnc(-c6ccccc6O)cc5c4C)C3)no2)C(C)C)cc1 (racemic) [Compound 258, (2S,4R)-4-hydroxy-1-((R)-2-(3-(2-((S)-3-(3-(2-hydroxyphenyl)-5-methyl-7H-pyrrolo[2,3-c]pyridazin-6-yl)pyrrolidin-1-yl)ethoxy)isoxazol-5-yl)-3-methylbutanoyl)-N-((S)-1-(4-(4-methylthiazol-5-yl)phenyl)ethyl)pyrrolidine-2-carboxamide] | A (“A” indicates maximum degradation ≥ 75%)
9 | > 75 | < 10 | > 10 | Cc1ncsc1-c1ccc([C@H](C)NC(=O)[C@@H]2C[C@@H](O)CN2C(=O)[C@@H](c2cc(OCCN3CC[C@@H](c4[nH]c5nnc(-c6ccccc6O)cc5c4C)C3)no2)C(C)C)cc1 (racemic) [Compound 259, (2S,4R)-4-hydroxy-1-((R)-2-(3-(2-((R)-3-(3-(2-hydroxyphenyl)-5-methyl-7H-pyrrolo[2,3-c]pyridazin-6-yl)pyrrolidin-1-yl)ethoxy)isoxazol-5-yl)-3-methylbutanoyl)-N-((S)-1-(4-(4-methylthiazol-5-yl)phenyl)ethyl)pyrrolidine-2-carboxamide] | A (“A” indicates maximum degradation ≥ 75%)
10 | < 50 | > 10 |  | Cc1ncsc1-c1ccc([C@H](C)NC(=O)[C@@H]2C[C@@H](O)CN2C(=O)[C@@H](c2cc(OCCN3CCC[C@H]3c3cc4cc(-c5ccccc5O)nnc4[nH]3)no2)C(C)C)cc1 (racemic) [Compound 260, (2S,4R)-4-hydroxy-1-((R)-2-(3-(2-((S)-2-(3-(2-hydroxyphenyl)-7H-pyrrolo[2,3-c]pyridazin-6-yl)pyrrolidin-1-yl)ethoxy)isoxazol-5-yl)-3-methylbutanoyl)-N-((S)-1-(4-(4-methylthiazol-5-yl)phenyl)ethyl)pyrrolidine-2-carboxamide] | B (“B” indicates maximum degradation ≥ 50%)
11 | < 50 |  |  | Cc1ncsc1-c1ccc([C@H](C)NC(=O)[C@@H]2C[C@@H](O)CN2C(=O)[C@@H](c2cc(OCCN3CCC[C@@H]3c3cc4cc(-c5ccccc5O)nnc4[nH]3)no2)C(C)C)cc1 (racemic) [Compound 261, (2S,4R)-4-hydroxy-1-((R)-2-(3-(2-((R)-2-(3-(2-hydroxyphenyl)-7H-pyrrolo[2,3-c]pyridazin-6-yl)pyrrolidin-1-yl)ethoxy)isoxazol-5-yl)-3-methylbutanoyl)-N-((S)-1-(4-(4-methylthiazol-5-yl)phenyl)ethyl)pyrrolidine-2-carboxamide] | C (“C” indicates maximum degradation < 50%)
12 | < 50 | > 10 |  | Cc1ncsc1-c1ccc([C@H](C)NC(=O)[C@@H]2C[C@@H](O)CN2C(=O)[C@@H](c2cc(OCCN3CC[C@@H](c4c[nH]c5nnc(-c6ccccc6O)cc45)C3)no2)C(C)C)cc1 (racemic) [Compound 262, (2S,4R)-4-hydroxy-1-((R)-2-(3-(2-((S)-3-(3-(2-hydroxyphenyl)-7H-pyrrolo[2,3-c]pyridazin-5-yl)pyrrolidin-1-yl)ethoxy)isoxazol-5-yl)-3-methylbutanoyl)-N-((S)-1-(4-(4-methylthiazol-5-yl)phenyl)ethyl)pyrrolidine-2-carboxamide] | B (“B” indicates maximum degradation ≥ 50%)
13 | > 75 | > 100 | > 1000 | Cc1ncsc1-c1ccc([C@H](C)NC(=O)[C@@H]2C[C@@H](O)CN2C(=O)[C@@H](c2cc(N3CCN(CC(=O)N4CC(c5cc6cc(-c7ccccc7O)nnc6[nH]5)C4)CC3)no2)C(C)C)cc1 (racemic) [Compound 263, (2S,4R)-4-hydroxy-1-((R)-2-(3-(4-(2-(3-(3-(2-hydroxyphenyl)-7H-pyrrolo[2,3-c]pyridazin-6-yl)azetidin-1-yl)-2-oxoethyl)piperazin-1-yl)isoxazol-5-yl)-3-methylbutanoyl)-N-((S)-1-(4-(4-methylthiazol-5-yl)phenyl)ethyl)pyrrolidine-2-carboxamide] | A (“A” indicates maximum degradation ≥ 75%)
14 | < 50 |  |  | Cc1ncsc1-c1ccc([C@H](C)NC(=O)[C@@H]2C[C@@H](O)CN2C(=O)C(c2cc(N3CCC(C(=O)N4CC(c5cc6cc(-c7ccccc7O)nnc6[nH]5)C4)CC3)no2)C(C)C)cc1 (mixture of isomers) [Compound 264, (2S,4R)-4-hydroxy-1-((R)-2-(3-(4-(3-(3-(2-hydroxyphenyl)-7H-pyrrolo[2,3-c]pyridazin-6-yl)azetidine-1-carbonyl)piperidin-1-yl)isoxazol-5-yl)-3-methylbutanoyl)-N-((S)-1-(4-(4-methylthiazol-5-yl)phenyl)ethyl)pyrrolidine-2-carboxamide] | C (“C” indicates maximum degradation < 50%)
